System: hiRPCp2
Assay: Differentiation ability of hiRPCp2 expanded in K+ medium (qRT-PCR of CRX and BRN3A)
Assay type: cell-based, human
Settings: Diff-2, late forced differentiation in ProB27 medium supplemented by DAPT, D10, qRT-PCR of CRX
Description: Total RNAs were extracted using Nucleospin RNA II kit (Macherey-Nagel) according to the manufacturer's protocol, and RNA yields and quality were checked with a NanoDrop spectrophotometer (Thermo Fisher Scientific). cDNA were synthesized from 250 ng of mRNA using the QuantiTect reverse transcription kit (Qiagen) following manufacturer's recommendations. Synthesized cDNA were then diluted at 1/20 in DNase-free water before performing quantitative PCR. qPCR analysis was performed on an Applied Biosystems real-time PCR machine (7500 Fast System) with custom TaqMan® Array 96-Well Fast plates and TaqMan® Gene expression Master Mix (Thermo Fisher Scientific) following manufacturer's instructions. All primers and MGB probes labeled with FAM for amplification were purchased from Thermo Fischer Scientific as described in Reichman et al., 2017 [2], ASCL1 (Assay ID Hs04187546_g1). Results were normalized against 18S and quantification of gene expression was based on the DeltaCt Method.
We tested the ability of the hiRPCs expanded after two passages (hiRPCp2) in K+ medium to be differentiated in retinal neurons. Three different culture conditions were tested: 1—By a spontaneous differentiation in ProB27 medium, a control condition. 2—By an “early forced” differentiation using ProB27 medium supplemented by DAPT, a Notch pathway inhibitor, directly after K+ medium condition at D3 (Diff 1). […]

With C[C@H](NC(=O)Cc1cc(F)cc(F)c1)C(=O)N[C@H](C(=O)OC(C)(C)C)c1ccccc1 [DAPT] the “differentiation of hiRPCp2” value was “favors the hiRPCs differentiation in photoreceptor precursors”.
